Literature values, collected in patent US6409991B1, “Treatment and system for nicotine withdrawal” (priority 1999, dated 2002).

In the case of `CN1CCCC1c1cccnc1` (stereo not shown) [nicotine], the plasma half-life is listed as “approximately two”.
